According to ChEMBL document CHEMBL5512603, “Development of de-novo coronavirus 3-chymotrypsin-like protease (3CLpro) inhibitors since COVID-19 outbreak: A strategy to tackle challenges of persistent virus infection” (Eur J Med Chem, 2024):

How the values were obtained:
[1] = Cytotoxicity against African green monkey Vero E6 cells; format: toxicity, cell-based, Vero C1008; details: chlorocebus sabaeus
[2] = target: T1, Replicase polyprotein 1ab (Severe acute respiratory syndrome coronavirus 2, UniProt P0DTD1); experiment: Inhibition of 2019-nCoV-2 3CLp using fluorescent substrate by FRET assay
[3] = target: T1, Replicase polyprotein 1ab; experiment: Inhibition of SARS-CoV-2 3CLp by mass spectrometry
[4] = target: Protein cereblon/Replicase polyprotein 1ab (Severe acute respiratory syndrome coronavirus 2, UniProt P0DTD1+Q96SW2); experiment: PROTAC activity at SARS-CoV-2 Main protease/CRBN E3 ligase (unknown origin)
[5] = target: T1, Replicase polyprotein 1ab; experiment: Inhibition of SARS-CoV-2 3CLp
[6] = target: T1, Replicase polyprotein 1ab; experiment: Inhibition of SARS-CoV-2 3CLp using fluorescent substrate by FRET assay
[7] = target: T1, Replicase polyprotein 1ab; experiment: Inhibition of SARS-CoV-2 recombinant main protease; format: single protein

Chain of Protein cereblon/Replicase polyprotein 1ab (Q96SW2 whole entry, other chains not shown): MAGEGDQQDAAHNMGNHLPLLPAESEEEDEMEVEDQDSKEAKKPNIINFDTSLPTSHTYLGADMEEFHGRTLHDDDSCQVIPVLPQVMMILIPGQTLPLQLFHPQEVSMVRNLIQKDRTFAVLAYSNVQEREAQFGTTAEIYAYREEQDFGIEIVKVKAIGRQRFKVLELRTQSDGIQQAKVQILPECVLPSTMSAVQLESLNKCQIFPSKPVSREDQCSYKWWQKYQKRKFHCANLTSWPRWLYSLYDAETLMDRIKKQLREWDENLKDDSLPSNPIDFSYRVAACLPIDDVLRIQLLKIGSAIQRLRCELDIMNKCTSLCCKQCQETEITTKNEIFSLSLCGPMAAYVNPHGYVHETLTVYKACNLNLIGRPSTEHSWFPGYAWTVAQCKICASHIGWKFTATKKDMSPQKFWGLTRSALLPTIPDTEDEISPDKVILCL

CC(C)(C)NC(=O)[C@@H](c1cccnc1)N(C(=O)c1c[nH]cn1)c1ccc(C(C)(C)C)cc1
CC50 [1]: 129000 nM | IC50 [2]: 960 nM

Cc1cncc(-n2c(=O)nc(Nc3cc4cn(C)nc4cc3Cl)n(Cc3cc(C#N)c(F)cc3C)c2=O)c1
IC50 [3]: 35 nM

C[C@H](NC(=O)[C@@H](c1cccnc1)N(C(=O)c1ccco1)c1ccc(-c2ccccc2)cc1)c1ccccc1
CC50 [1]: > 200000 nM | IC50 [2]: 660 nM

Cn1cc2cc(/N=c3\[nH]c(=O)n(Cc4cn(CCCCC(=O)Nc5cccc6c5C(=O)N(C5CCC(=O)NC5=O)C6)nn4)c(=O)n3Cc3cc(F)c(F)cc3F)c(Cl)cc2n1 (stereo unspecified)
EC50 [4]: < 100 nM | IC50 [5]: < 100 nM

C[C@H](NC(=O)[C@@H](c1cccnc1)N(C(=O)CCl)c1ccc(-c2ccccc2)cc1)c1ccccc1
IC50 [6]: 50 nM

O=C(O)c1ccc(Nc2nc(=O)n(Cc3ccc[nH]c3=O)c(=O)n2Cc2cc(F)c(F)c(F)c2)cc1
IC50 [3]: < 1000 nM

COc1cc(Cl)cc(-c2cc(-c3c[nH]c(=O)[nH]c3=O)cn(-c3cccnc3)c2=O)c1
IC50 [7]: 1000 nM

Cn1cc2cc(/N=c3\[nH]c(=O)n(Cc4cn(CCOCC(=O)Nc5cccc6c5C(=O)N(C5CCC(=O)NC5=O)C6)nn4)c(=O)n3Cc3cc(F)c(F)cc3F)c(Cl)cc2n1 (stereo unspecified)
EC50 [4]: < 100 nM | IC50 [5]: > 100 nM

O=c1[nH]cc(-c2cc(-c3cc(Cl)cc(COc4ccccc4)c3)c(=O)n(-c3cccnc3)c2)c(=O)[nH]1
IC50 [7]: 128 nM

O=c1[nH]cc(-c2cc(-c3cc(Cl)cc(COc4c(F)cccc4F)c3)c(=O)n(-c3cccnc3)c2)c(=O)[nH]1
IC50 [7]: 36 nM

Cn1cc2cc(/N=c3\[nH]c(=O)n(Cc4cn(CCCCCC(=O)Nc5cccc6c5C(=O)N(C5CCC(=O)NC5=O)C6)nn4)c(=O)n3Cc3cc(F)c(F)cc3F)c(Cl)cc2n1 (stereo unspecified)
EC50 [4]: < 100 nM | IC50 [5]: < 100 nM

Cn1cc2cc(/N=c3\[nH]c(=O)n(Cc4cn(CCCCCCC(=O)Nc5cccc6c5C(=O)N(C5CCC(=O)NC5=O)C6)nn4)c(=O)n3Cc3cc(F)c(F)cc3F)c(Cl)cc2n1 (stereo unspecified)
EC50 [4]: < 100 nM | IC50 [5]: > 100 nM

CC(C)COc1cc(Cl)cc(-c2cc(-c3c[nH]c(=O)[nH]c3=O)cn(-c3cccnc3)c2=O)c1
IC50 [7]: 190 nM

CCn1nnnc1Cn1c(=O)[nH]/c(=N\c2cc3cn(C)nc3cc2Cl)n(Cc2cc(F)c(F)cc2F)c1=O
IC50 [2]: 160 nM

Cn1cc2cc(/N=c3\[nH]c(=O)n(Cc4cn(CCOCCOCC(=O)Nc5cccc6c5C(=O)N(C5CCC(=O)NC5=O)C6=O)nn4)c(=O)n3Cc3cc(F)c(F)cc3F)c(Cl)cc2n1 (stereo unspecified)
EC50 [4]: < 100 nM | IC50 [5]: < 100 nM

Cn1cc2cc(/N=c3\[nH]c(=O)n(Cc4cn(CCCC(=O)Nc5cccc6c5C(=O)N(C5CCC(=O)NC5=O)C6)nn4)c(=O)n3Cc3cc(F)c(F)cc3F)c(Cl)cc2n1 (stereo unspecified)
EC50 [4]: < 100 nM | IC50 [5]: > 100 nM

O=c1[nH]cc(-c2cc(-c3cc(Cl)cc(OCCc4ccccc4)c3)c(=O)n(-c3cccnc3)c2)c(=O)[nH]1
IC50 [7]: 37 nM

Cn1cc2cc(/N=c3\[nH]c(=O)n(Cc4cn(CCCCCCC(=O)Nc5cccc6c5C(=O)N(C5CCC(=O)NC5=O)C6=O)nn4)c(=O)n3Cc3cc(F)c(F)cc3F)c(Cl)cc2n1 (stereo unspecified)
EC50 [4]: > 100 nM | IC50 [5]: < 100 nM

CC(=O)NCCn1cc2cc(Nc3nc(=O)n(Cc4ccc[nH]c4=O)c(=O)n3Cc3cc(F)c(F)c(F)c3)c(Cl)cc2n1
IC50 [3]: < 1000 nM

Cn1cc2cc(/N=c3\[nH]c(=O)n(Cc4cn(CCOCCOCC(=O)Nc5cccc6c5C(=O)N(C5CCC(=O)NC5=O)C6)nn4)c(=O)n3Cc3cc(F)c(F)cc3F)c(Cl)cc2n1 (stereo unspecified)
EC50 [4]: < 100 nM | IC50 [5]: < 100 nM

Cn1cnc(Cn2c(=O)cc(Nc3cc4cn(C)nc4cc3OC(F)(F)F)n(Cc3cc(F)c(F)cc3F)c2=O)n1
IC50 [3]: 10 nM

O=C1c2c(O)cc(O)c([Se][Se]c3c(O)cc(O)c4c3OC(c3cc(O)c(O)c(O)c3)C(O)C4=O)c2CC(c2cc(O)c(O)c(O)c2)C1O (stereo unspecified)
IC50 [6]: 810 nM

CC(C)(C)c1ccc(N(C(=O)c2ccco2)[C@@H](C(=O)NC2CCCC2)c2cccnc2)cc1
CC50 [1]: 101000 nM | IC50 [2]: 2510 nM

CCn1nncc1Cn1c(=O)[nH]/c(=N\c2cc3cn(C)nc3cc2Cl)n(Cc2cc(F)c(F)cc2F)c1=O
IC50 [2]: 123 nM

Cn1cc2cc(/N=c3\[nH]c(=O)n(Cc4cn(CCOCCOCCOCC(=O)Nc5cccc6c5C(=O)N(C5CCC(=O)NC5=O)C6)nn4)c(=O)n3Cc3cc(F)c(F)cc3F)c(Cl)cc2n1 (stereo unspecified)
EC50 [4]: < 100 nM | IC50 [5]: > 100 nM

O=c1[nH]cccc1Cn1c(=O)nc(Nc2cc3cn(C4CCOCC4)nc3cc2Cl)n(Cc2cc(F)c(F)c(F)c2)c1=O
IC50 [3]: < 1000 nM

Cn1cc2cc(/N=c3\[nH]c(=O)n(Cc4cn(CCCCC(=O)Nc5cccc6c5C(=O)N(C5CCC(=O)NC5=O)C6=O)nn4)c(=O)n3Cc3cc(F)c(F)cc3F)c(Cl)cc2n1 (stereo unspecified)
EC50 [4]: < 100 nM | IC50 [5]: < 100 nM

Cc1cc(Cn2c(Nc3cc4cn(C)nc4cc3Cl)cc(=O)n(Cc3ncn(C)n3)c2=O)c(F)cc1F
IC50 [3]: 12 nM

CC(=O)Nc1nc2cc(Cl)c(Nc3nc(=O)n(Cc4ncn(C)n4)c(=O)n3Cc3cc(F)c(F)c(Cl)c3)cc2s1
IC50 [3]: < 1000 nM

CC(C)(C)c1ccc(N(C(=O)c2ccco2)[C@@H](C(=O)NC2CC2)c2cccnc2)cc1
CC50 [1]: 52800 nM | IC50 [2]: 3860 nM

Cn1cc2cc(/N=c3\[nH]c(=O)n(Cc4cn(CCOCC(=O)Nc5cccc6c5C(=O)N(C5CCC(=O)NC5=O)C6=O)nn4)c(=O)n3Cc3cc(F)c(F)cc3F)c(Cl)cc2n1 (stereo unspecified)
EC50 [4]: < 100 nM | IC50 [5]: > 100 nM

Cn1cc2cc(/N=c3\[nH]c(=O)n(Cc4cn(CCCC(=O)Nc5cccc6c5C(=O)N(C5CCC(=O)NC5=O)C6=O)nn4)c(=O)n3Cc3cc(F)c(F)cc3F)c(Cl)cc2n1 (stereo unspecified)
EC50 [4]: < 100 nM | IC50 [5]: < 100 nM

COCCCc1cc(Cl)cc(-c2cc(-c3c[nH]c(=O)[nH]c3=O)cn(-c3cccnc3)c2=O)c1
IC50 [7]: 25 nM

Cn1cc2cc(/N=c3\[nH]c(=O)n(Cc4nnn[nH]4)c(=O)n3Cc3cc(F)c(F)cc3F)c(Cl)cc2n1
IC50 [2]: 120 nM

CN(C)CCn1cc2cc(Nc3nc(=O)n(Cc4ccc[nH]c4=O)c(=O)n3Cc3cc(F)c(F)c(F)c3)c(Cl)cc2n1
IC50 [3]: < 1000 nM

Cn1cc2cc(/N=c3\[nH]c(=O)n(Cc4cn(CCC(=O)Nc5cccc6c5C(=O)N(C5CCC(=O)NC5=O)C6)nn4)c(=O)n3Cc3cc(F)c(F)cc3F)c(Cl)cc2n1 (stereo unspecified)
EC50 [4]: > 100 nM | IC50 [5]: > 100 nM

Cn1cc2cc(/N=c3\[nH]c(=O)n(Cc4cn(CCCCCC(=O)Nc5cccc6c5C(=O)N(C5CCC(=O)NC5=O)C6=O)nn4)c(=O)n3Cc3cc(F)c(F)cc3F)c(Cl)cc2n1 (stereo unspecified)
EC50 [4]: < 100 nM | IC50 [5]: < 100 nM

C[C@H](NC(=O)[C@@H](c1cccnc1)N(C(=O)c1ccco1)c1ccc(C(C)(C)C)cc1)c1ccccc1
IC50 [2]: 5700 nM

Cc1cccc(OCc2cc(Cl)cc(-c3cc(-c4c[nH]c(=O)[nH]c4=O)cn(-c4cccnc4)c3=O)c2)c1
IC50 [7]: 110 nM

O=c1[nH]cc(-c2cc(-c3cc(Cl)cc(COc4cccc(F)c4)c3)c(=O)n(-c3cccnc3)c2)c(=O)[nH]1
IC50 [7]: 37 nM

Cn1cc2cc(Nc3nc(=O)n(Cc4ccc[nH]c4=O)c(=O)n3Cc3cc(F)c(F)c(F)c3)c(Cl)cc2n1
IC50 [3]: < 1000 nM

CCn1cc2cc(Nc3nc(=O)n(-c4cncc(Cl)c4)c(=O)n3Cc3cc(C#N)ccc3Cl)ccc2n1
IC50 [3]: 355 nM

Cn1cnc(Cn2c(=O)cc(Nc3cc4cn(C)nc4cc3C(F)(F)F)n(Cc3cc(Cl)c(Cl)cc3F)c2=O)n1
IC50 [3]: 14 nM

COc1ccc(Nc2nc(=O)n(Cc3ccc[nH]c3=O)c(=O)n2Cc2cc(F)c(F)c(F)c2)cc1
IC50 [3]: < 1000 nM

Cn1cnc(Cn2c(=O)cc(Nc3cc4cn(C)nc4cc3F)n(Cc3cc(Cl)c(F)cc3F)c2=O)n1
IC50 [3]: 18 nM

Cc1ccccc1OCc1cc(Cl)cc(-c2cc(-c3c[nH]c(=O)[nH]c3=O)cn(-c3cccnc3)c2=O)c1
IC50 [7]: 100 nM

Cn1cc2cc(/N=c3\[nH]c(=O)n(Cc4cn(CCCCCCCC(=O)Nc5cccc6c5C(=O)N(C5CCC(=O)NC5=O)C6=O)nn4)c(=O)n3Cc3cc(F)c(F)cc3F)c(Cl)cc2n1 (stereo unspecified)
EC50 [4]: > 100 nM | IC50 [5]: > 100 nM

C[C@H](NC(=O)[C@@H](c1cccnc1)N(C(=O)c1ccco1)c1ccc(-n2cccc2)cc1)c1ccccc1
CC50 [1]: > 200000 nM | IC50 [2]: 940 nM

CCn1cc2cc(Nc3nc(=O)n(-c4cncc(Cl)c4)c(=O)n3Cc3cc(C#N)ccc3C)ccc2n1
IC50 [3]: 234 nM

Cn1cc2cc(/N=c3\[nH]c(=O)n(Cc4cn(CCC(=O)Nc5cccc6c5C(=O)N(C5CCC(=O)NC5=O)C6=O)nn4)c(=O)n3Cc3cc(F)c(F)cc3F)c(Cl)cc2n1 (stereo unspecified)
EC50 [4]: > 100 nM | IC50 [5]: > 100 nM

Cc1nc2cc(Br)c(Nc3nc(=O)n(Cc4ncn(C)n4)c(=O)n3Cc3cc(F)c(F)c(F)c3)cc2s1
IC50 [3]: < 1000 nM

Cn1cnc(Cn2c(=O)nc(Nc3cc4sc(N)nc4cc3Cl)n(Cc3cc(F)c(F)c(Cl)c3)c2=O)n1
IC50 [3]: < 1000 nM

O=c1[nH]cc(-c2cc(-c3cc(Cl)cc(COc4ccccc4F)c3)c(=O)n(-c3cccnc3)c2)c(=O)[nH]1
IC50 [7]: 24 nM

N#Cc1ccccc1-c1cc(-c2cccc(Cl)c2)cn(-c2cccnc2)c1=O
IC50 [7]: 9990 nM

Cn1cnc(Cn2c(=O)cc(Nc3cc4cn(C)nc4cc3Cl)n(Cc3cc(F)c(F)cc3F)c2=O)n1
IC50 [3]: 10 nM

CC(C)(C)c1ccc(N(C(=O)c2ccco2)[C@@H](C(=O)NC2CCCCC2)c2cccnc2)cc1
CC50 [1]: 18200 nM | IC50 [2]: 2390 nM

Cn1cc2cc(/N=c3\[nH]c(=O)n(Cc4cn(CCCCCCCC(=O)Nc5cccc6c5C(=O)N(C5CCC(=O)NC5=O)C6)nn4)c(=O)n3Cc3cc(F)c(F)cc3F)c(Cl)cc2n1 (stereo unspecified)
EC50 [4]: > 100 nM | IC50 [5]: > 100 nM

CC(C)(O)Cn1cc2cc(Nc3nc(=O)n(Cc4ccc[nH]c4=O)c(=O)n3Cc3cc(F)c(F)c(F)c3)c(Cl)cc2n1
IC50 [3]: < 1000 nM

COc1ccc(Nc2nc(=O)n(Cc3ccc[nH]c3=O)c(=O)n2Cc2cc(F)c(F)c(F)c2)c(OC)c1
IC50 [3]: < 1000 nM

O=c1[nH]cc(-c2cc(-c3cc(Cl)cc(COc4ccccc4Cl)c3)c(=O)n(-c3cccnc3)c2)c(=O)[nH]1
IC50 [7]: 18 nM

CCOC(=O)/C=C/C(=O)N(c1ccc(-c2ccccc2)cc1)[C@@H](C(=O)N[C@@H](C)c1ccccc1)c1cccnc1
IC50 [6]: > 20000 nM

C=C(Cl)C(=O)N(c1ccc(-c2ccccc2)cc1)[C@@H](C(=O)N[C@@H](C)c1ccccc1)c1cccnc1
IC50 [6]: 4220 nM

Cn1cnc(Cn2c(=O)nc(Nc3cc4sc(NCC(F)F)nc4cc3Cl)n(Cc3cc(F)c(F)c(F)c3)c2=O)n1
IC50 [3]: < 1000 nM
